According to patent US8211940B2 (Debiopharm S.A., priority 2001, dated 2012):
Read-outs that look alike come from different tables or passages of the source.

Tested on: CD-1 mice
Excerpt: Lethal doses LD10 of a cytostatic active substance determinated in mice is generally considered as being a significative correlation with the maximum tolerated doses (MTD) in man.

O=C1[O][Pt]2([NH]C3CCCCC3[NH]2)[O]C1=O (stereo not drawn) [Example 1, cis-oxalate (trans l-1,2-cyclohexanediamine)-platinum (II)]
LD10 (same solution with addition of oxalic acid at a final concentration of 0.2 mM (second group)): around 14.4
LD10 (solution of the oxaliplatin active substance alone (first group)): around 18.0 mg/kg
